Measured values: EP1808169B1, “Polyhydroxylated aromatic compounds for the treatment of amyloidosis and alpha-synuclein fibril diseases” (priority 1999, dated 2001)

Tests used:
Assay type in all cases: biochemical
[1] = molecular target: T1, human amylin (Homo sapiens, UniProt P10997); assay: Thioflavin T fluorometry: disassembly/disruption of islet amyloid (amylin) fibrils; conditions: 25 µM human amylin, 100µg/ml compound, amylin:compound weight ratio 1:1, overnight (~18 hours) at 37°C, pH 7.0; read-out: Fluorescence inhibition, %
T1 construct: This amyloid protein involved consists of a 37 amino acid protein known as islet amyloid polypeptide or amylin; purchased Bachem
T1 sequence (P10997 34-70 limits assumed): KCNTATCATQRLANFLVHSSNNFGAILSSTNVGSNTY

[2] = tested on: Aβ 1-40 amyloid fibrils; assay: Thioflavin T fluorometry: dose-dependent disassembly/disruption of pre-formed Aβ 1-40 fibrils; conditions: 25 µM pre-fibrillized Aβ 1-40, overnight (~18 hours) at 37°C
Source text: A previously described method of measuring amyloid fibril formation utilizing Thioflavin T fluorometry (H Naiki et al., Lab. Invest. 65:104-110, 1991; H Levine III, Protein Sci. 2:404-410, 1993; H Levine III, Amyloid: Int. J. Exp. Clin. Invest. 2:1-6, 1995; H Naiki and K. Nakakuki, Lab. Invest. 74:374-383, 1996) was employed to identify potential therapeutic compounds capable of causing a disassembly/disruption of Alzheimer's Aβ 1-42 amyloid fibrils. Thioflavin T is known to bind to fibrillar amyloid proteins, and an increase in fluorescence correlates with an increase in amyloid fibril formation, whereas a decrease in fluorescence correlates with a decrease in amyloid fibrils due to disassembly and/or disruption. The Alzheimer's Aβ protein (1-42) when placed in solution, such as distilled water, tends to spontaneously form amyloid fibrils. Using this sensitive assay, any decreases or increases in fluorescence was previously shown to correlate with a decrease or increase in the amount of amyloid fibrils (see the documents cited above), allowing one to identify and quantitate the extent of potential inhibitors and/or enhancers of Alzheimer's Aβ 1-42 amyloid fibrils.
To assess the effects of each compound on potential disassembly/ disruption of preformed Aβ 1-42 fibrils, 50 µl of Aβ 1-42 with or without test compounds (described above) were added to 1.2 ml of 100µM Thioflavin T (Sigma) in 50mM NaH2PO4 (pH 6.0) for fluorometry readings. […] Fluorescence emission at 482 nm was measured on a Turner instrument-model 450 fluorometer at an excitation wavelength of 450 nm. For each determination, the fluorometer was calibrated by zeroing in the presence of the Thioflavin T reagent alone, and by setting the 50 ng/ml riboflavin (Sigma Chemical Co., St. Louis, MO) in the Thioflavin T reagent to 1800 fluorescence units. All fluorescence determinations were based on these references and any fluorescence given off by any of the compounds in the presence of the Thioflavin T reagent was always subtracted from all pertinent readings.
For all fibrillogenesis studies utilizing Thioflavin T fluorometry, as disclosed herein, comparisons of amyloid protein in the presence or absence of test compounds were based on paired Student's t tests with data shown as the mean of triplicate measurements ± standard deviation.
In this study, the potential dose-dependent effects of tannic acid and gallic acid on disassembly/ disruption of pre-formed Aβ 1-40 was assessed. In this experiment, 1 mg of Aβ 1-40 (Bachem Inc., Torrance, CA, USA; Lot # T-20824) was dissolved in 1.0 ml of double distilled water (1 mg/ml solution) and incubated for 4 days at 37°C to spontaneously induce fibril formation. 25 µM of pre-fibrillized Aβ 1-40 was then incubated overnight (~18 hours) at 37°C, in the absence or presence of increasing amounts (25µg/ml, 50µg/ml, 75µg/ml and 100µg/ml) of tannic acid or gallic acid (each in the presence of 150 mM Tris HCl, 10 mM NaCl, pH 7.0, with 0.02% sodium azide). The Aβ:compound weight ratios were therefore 4:1, 2:1, 4:3, and 1:1, respectively, 50 µl aliquots were then added to 1.2 ml of 100µM Thioflavin T (Sigma) in 50mM NaH2PO4 (pH 6.0) for fluorometry readings as described in Example 1 above.

[3] = molecular target: T1, human amylin; assay: Congo red staining of amylin fibrils on gelatin-coated slides (polarized light); conditions: result in words; amylin + compound after overnight incubation, compared with amylin alone
Description: Following Thioflavin T fluorometry readings as described in Example 1, 5µl aliquots of amylin only, amylin + myricetin, amylin + exifone, and amylin + tannic acid were also taken, allowed to air dry overnight on gelatin-coated slides, and stained with Congo red as previously described (Castillo et al., Diabetes 47:612-620, 1998).

[4] = tested on: Aβ 1-40 amyloid fibrils; assay: Modified Congo red-Aβ spectrophotometric assay: disaggregation of pre-formed Aβ 1-40 fibrils (3 days incubation); conditions: Aβ:compound weight ratio 2:1; fibrillized Aβ 1-40 incubated with compound 3 days at 37°C in TBS pH 7.0; Δ absorbance at 540 nm; triplicate
Description: In this study, a Congo red-Aβ spectrophotometric assay (Klunk et al., Anal. Biochem. 266:66-76, 1999) was modified to determine the effectiveness of polyhydroxylated aromatic compounds on the disaggregation of pre-formed Aβ 1-40 amyloid fibrils. For this assay, 1 mg of Aβ 1-40 (Bachem) was incubated for 4 days in distilled water at 37°C to spontaneously produce amyloid fibrils. 25pM of fibrillized Aβ 1-40 was then incubated in triplicate with various test compounds for 3 days at 37°C in Tris-buffered saline (TBS)(100 mM Tris; 50 mM NaCl; pH 7.0, with 0.02% sodium azide), at an Aβ:compound weight ratio of 2:1. Following incubation, 50µl of 360 µM Congo red (Sigma) in distilled water was then added to 250 µl of each incubation mixture, giving a final Aβ:Congo red molar ratio of 1:3. After 10 minutes, the absorbance at 405 nm (reference wavelength to account for the absorbance of Congo red alone at 540 nm) and 540 nm (sample absorbance where "sample" refers to Aβ alone, test compound alone, or Aβ plus test compound, all in the presence of Congo red) was determined using a Biorad Model 550 BLISA Plate Reader (Biorad, Hercules, CA, USA). The absorbance at wavelength 405 nm was automatically subtracted by the ELISA plate reader from the absorbance at wavelength 540 nm (difference is referred to as Δ absorbance)(see Klunk et al. cited above). Therefore, the Δ absorbance reading at 540 nm was proportional to the amount of aggregated Aβ left in solution (Klunk et al.).
For all experiments involving test compounds, the Δ absorbance reading at 540 nm of the test compound alone (in the absence of Aβ), was always subtracted from the corresponding Δ absorbance reading at 540 nm of the test compound in the presence of Aβ. Using this modification of the method of Klunk et al., the use of a greater final concentration of Congo red, i.e. 60µM instead of 14µM, in the presence of fibrillar Aβ gave an overall absorbance at 540 nm that was always below 1.0 Absorbance Unit (AU), and well within the linear absorbance range.
The following polyhydroxylated aromatic containing compounds were tested using the above described Congo red-Aβ spectrophotometric assay to determine their effectiveness on disaggregation of pre-formed Aβ 1-40 amyloid fibrils: 1) gallic acid, 2) ethyl gallate, 3) quinic acid, 4) gallamide trihydrate, 5) ellagic acid, 6) propyl gallate, and 7) pyrogallol.

[5] = Aβ:compound w/w ratio 1:1 (100µg/ml compound)
[6] = Aβ:compound w/w ratio 2:1 (50µg/ml compound)
[7] = Aβ:compound w/w ratio 4:1 (25µg/ml compound)
[8] = Aβ:compound w/w ratio 4:3 (75µg/ml compound)

SMILES	inhibition at 100 µg/mL [1] [%]	Fluorescence inhibition, %, at the Aβ 1.40:compound w/wratios given [2, 5] [%]	Fluorescence inhibition, %, at the Aβ 1.40:compound w/wratios given [2, 6] [%]	Fluorescence inhibition, %, at the Aβ 1.40:compound w/wratios given [2, 7] [%]	Fluorescence inhibition, %, at the Aβ 1.40:compound w/wratios given [2, 8] [%]	Congo red staining [3]	Decrease in absorbance, % [4] [%]
O=C(OC[C@H]1O[C@@H](OC(=O)c2cc(O)c(O)c(OC(=O)c3cc(O)c(O)c(O)c3)c2)[C@H](OC(=O)c2cc(O)c(O)c(OC(=O)c3cc(O)c(O)c(O)c3)c2)[C@@H](OC(=O)c2cc(O)c(O)c(OC(=O)c3cc(O)c(O)c(O)c3)c2)[C@@H]1OC(=O)c1cc(O)c(O)c(OC(=O)c2cc(O)c(O)c(O)c2)c1)c1cc(O)c(O)c(OC(=O)c2cc(O)c(O)c(O)c2)c1 [Tannic acid, tannic acid]	83.8 ± 1.4	53 ± 4.2	42 ± 2.8	31 ± 4.8	49 ± 3.7	marked decrease in Congo red staining	–
O=C(O)c1cc(O)c(O)c(O)c1 [Gallic acid, gallic acid]	–	45 ± 4.1	22 ± 3.3	14 ± 8.2	34 ± 3.6	–	52 ± 0.4
